Data from patent US20210379057A1, “NUTLIN-3A FOR USE IN TREATING A MYCOBACTERIUM TUBERCULOSIS INFECTION” (Massachusetts Institute of Technology, priority 2018, published 2021).

Key:
[1] = test system: Mycobacterium tuberculosis (Mtb) in primary human CD14+ monocyte-derived macrophages; type: cell-based
[2] = test system: Mtb infected macrophages; experiment: Macrophage death in Mtb infected macrophages; settings: Mtb infected macrophages treated with compound
[3] = test system: p53; type: cell-based, human

## Cc1ccc2nc(NCCN)c3ncc(C)n3c2c1 [BMS-345541]
[1]
  Mtb control (bacterial survival, ratio of live GFP+ to total mCherry+ pixels): worsened bacterial control

## O=C(Nc1cc(Cl)cc2c1[nH]c1cnccc12)c1cccnc1 [PS-1145]
[1]
  Mtb control (bacterial survival, ratio of live GFP+ to total mCherry+ pixels): worsened bacterial control

## NNC(=O)c1ccncc1 [isoniazid]
[1]
  GFP+/RFP+ pixel area: decrease in the GFP+/RFP+ pixel area

## COc1ccc(C2=N[C@@H](c3ccc(Cl)cc3)[C@@H](c3ccc(Cl)cc3)N2C(=O)N2CCNC(=O)C2)c(OC(C)C)c1 [nutlin-3a]
[1]
  Mtb control (bacterial survival, ratio of live GFP+ to total mCherry+ pixels): significantly increased Mtb control
[2]
  macrophage death: without increasing macrophage death
[3]
  expression of p53: enhanced expression of p53
